In PMC5005245, “Chemical and pharmacological evaluations on the extract of Scutellaria baicalensis Georgi (Huang-Qin) prepared by various extraction methods” (SpringerPlus, 2016):

Columns and labels:
[1] = DPPH free radicals scavenging assay; details: concentration of sample which scavenges 50 % of free radicals; 30 min; mean ± SEM (n = 3)
Description: The free radicals scavenging capacities (SC) were measured and compared using the DPPH assay (Chan et al. [2010]). Briefly, 5 µl of individual extract (0.625–10 mg/ml) was mixed with 195 μl of DPPH solution (24 mg/l) in a 96-well plate. The reaction was allowed to proceed in the dark for 30 min before the absorbance of the resultant solution was measured at 515 nm using a Micro-plate Absorbance Reader (Bio-Rad, CA, USA). Ascorbic acid (Sigma-Aldrich Chemicals Co., MO, USA) in distilled water served as the positive control. SC50 was estimated as the concentration of sample which scavenges 50 % of free radicals.

FRAP assay = details: positive control, 1 mM was used; mean ± SEM (n = 3)
Description: The FRAP assay was performed in a 96-well plate as described (Firuzi et al. [2005]). Briefly, 5 µl of each sample was mixed with 150 µl of freshly prepared FRAP reagent (250 mM acetate buffer, pH 3.6; 8.3 mM 2,4,6-tripyridyl-s-triazine dissolved in 40 mM HCl and 16.7 mM FeCl3·6H2O solution). After incubation at 37 °C for 30 min, the absorbance of the solution was measured at 593 nm. Different concentrations of Fe^2+ standard solution were used for the construction of the standard curve, and ascorbic acid was used as the positive control.

## O=C1O[C@H]([C@@H](O)CO)C(O)=C1O [Ascorbic acid]
[1]
  DPPH assay (SC50): 0.107 ± 0.004 mg/mL
FRAP assay
  FRAP assay: 2278 ± 15 μmol Fe^2+/mg extract
